From patent US7186732B2, “Non-imidazole aryloxyalkylamines” (Ortho-McNeil Pharmaceutical, Inc., priority 2000, dated 2007) come the findings set out here.

The target of one experiment is T1, human histamine H3 receptor (Homo sapiens, UniProt Q9Y5N1).
T1 construct: expressed in transfected cells; membranes prepared from cell pellets
T1 sequence (Q9Y5N1 whole entry): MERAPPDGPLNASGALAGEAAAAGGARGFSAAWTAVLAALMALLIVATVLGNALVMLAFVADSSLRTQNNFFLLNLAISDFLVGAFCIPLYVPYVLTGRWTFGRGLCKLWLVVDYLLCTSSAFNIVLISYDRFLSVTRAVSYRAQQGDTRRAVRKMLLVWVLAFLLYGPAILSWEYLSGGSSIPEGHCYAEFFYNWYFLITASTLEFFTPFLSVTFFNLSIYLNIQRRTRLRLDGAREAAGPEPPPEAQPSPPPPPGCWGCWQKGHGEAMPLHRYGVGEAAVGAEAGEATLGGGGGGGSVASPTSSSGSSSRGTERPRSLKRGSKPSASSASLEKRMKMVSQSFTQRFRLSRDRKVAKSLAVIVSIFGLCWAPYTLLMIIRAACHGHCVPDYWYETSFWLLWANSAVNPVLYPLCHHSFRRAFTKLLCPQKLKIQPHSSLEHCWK
Nature of the experiment: [3H]-N-methylhistamine binding to membranes of histamine H3 receptor-expressing SK-N-MC cells.
Details: not given
The procedure:
Thus in the present invention receptor binding was determined using the human histamine H3 receptor (See Lovenberg et al Mol. Pharmacol. 1999, 1107). Screening using the human receptor is particularly important for the identification of new therapies for the treatment of human disease. Conventional binding assays for example are determined using rat synaptosomes (Garbarg et al J. Pharmacol. Exp. Ther. 1992, 263, 304), rat cortical membranes (West et al Mol. Pharmacol. 1990, 610), and guinea pig brain (Korte et al Biochem. Biophys. Res. Commun. 1990, 978).
Transfection of Cells with Human Histamine Receptor
A 10 cm tissue culture dish with a confluent monolayer of SK-N-MC cells was split two days prior to transfection. Using sterile technique the media was removed and the cells were detached from the dish by the addition of trypsin. One fifth of the cells were then placed onto a new 10 cm dish. Cells were grown in a 37° C. incubator with 5% CO2 in Minimal Essential Media Eagle with 10% Fetal Bovine Serum. After two days cells were approximately 80% confluent. These were removed from the dish with trypsin and pelleted in a clinical centrifuge. The pellet was then re-suspended in 400 μL complete media and transferred to an electroporation cuvette with a 0.4 cm gap between the electrodes (Bio-Rad #165–2088). One microgram of supercoiled H3 receptor cDNA was added to the cells and mixed. The voltage for the electroporation was set at 0.25 kV, the capacitance was set at 960 μF. After electroporation the cells were diluted into 10 mL complete media and plated onto four 10 cm dishes. Because of the variability in the efficiency of electroporation, four different concentrations of cells were plated. The ratios used were; 1:20, 1:10, 1:5, with the remainder of the cells being added to the fourth dish. The cells were allowed to recover for 24 hours before adding the selection media (complete media with 600 μg/mL G418). After 10 days dishes were analyzed for surviving colonies of cells. Dishes with well isolated colonies were used. Cells from individual colonies were isolated and tested. SK-N-MC cells were used because they give efficient coupling for inhibition of adenylate cyclase. The clones that gave the most robust inhibition of adenylate cyclase in response to histamine were used for further study.
[^3H]-N-methylhistamine Binding
Cell pellets from histamine H3 receptor-expressing SK-N-MC cells were homogenized in 20 mM TrisHCI/0.5 mM EDTA. Supernatants from a 800 g spin were collected, recentrifuged at 30,000 g for 30 minutes. Pellets were re-homogenized in 50 mM Tris/5 mM EDTA (pH 7.4). Membranes were incubated with 0.8 nM [^3H]-N-methylhistamine plus/minus test compounds for 45 min at 25° C. and harvested by rapid filtration over GF/C glass fiber filters (pretreated with 0.3% polyethylenimine) followed by four washes with ice cold buffer. Filters were dried, added to 4 mL scintillation cocktail and then counted on a liquid scintillation counter. Non-specific binding was defined with 10 μM histamine. The pKi values were calculated based on a Kd of 800 pM and a ligand concentration ([L]) of 800 pM according to the formula: Ki=(IC50)/(1+([L]/(Kd))
In the case of `OC1CCN(Cc2ccc(OCCCN3CCCCC3)cc2)CC1` [Example 89, 1-[4-(3-Piperidin-1-yl-propoxy)-benzyl]-piperidin-4-ol], the affinity, expressed as Ki, was 0.6 nM.

The same experiment, now with this note: 0.8 nM [3H]-N-methylhistamine, 45 min at 25° C., SK-N-MC cell membranes; Ki=(IC50)/(1+([L]/(Kd)); read-out: Ki.
For `c1cncc(C2CCCCN2Cc2ccc(OCCCN3CCCCC3)cc2)c1` (stereo not drawn) [Example 61, 1-[4-(3-Piperidin-1-yl-propoxy)-benzyl]-1,2,3,4,5,6-hexahydro-[2,3′]bipyridinyl], the Ki (commonly the equilibrium dissociation constant of an inhibitor or competing ligand from its target) was 2 nM.
With `c1ccc(NCc2ccc(OCCCN3CCCCC3)cc2)cc1` [Example 62, Phenyl-[4-(3-piperidin-1-yl-propoxy)-benzyl]-amine], the Ki was 7 nM.
Same read-out and setting: to `c1ccc(NCc2ccccc2OCCCN2CCCCC2)nc1` [Example 65, [2-(3-Piperidin-1-yl-propoxy)-benzyl]-pyridin-2-yl-amine] belongs 100 nM; to `c1ccc(NCc2cccc(OCCCN3CCCCC3)c2)nc1` [Example 66, [3-(3-Piperidin-1-yl-propoxy)-benzyl]-pyridin-2-yl-amine], 8 nM.
Turning to `Clc1ccc(NCc2ccccc2OCCCN2CCCCC2)cc1` [Example 67, (4-Chloro-phenyl)-[2-(3-piperidin-1-yl-propoxy)-benzyl]-amine], the Ki is 1500 nM.
The same measure, in the same setting: for `Clc1ccc(NCc2cccc(OCCCN3CCCCC3)c2)cc1` [Example 68, (4-Chloro-phenyl)-[3-(3-piperidin-1-yl-propoxy)-benzyl]-amine] the value was 89 nM.
With `OCCC1CCCCN1CCCOc1ccc(CN2CCCCC2)cc1` (stereo not drawn) [Example 69, 2-{1-[3-(4-Piperidin-1-ylmethyl-phenoxy)-propyl]-piperidin-2-yl}-ethanol], the Ki came to 3.9 nM.
For `C(=C1CCN(Cc2ccccc2OCCCN2CCCCC2)CC1)c1ccccc1` [Example 70, 1-{3-[2-(4-Benzylidene-piperidin-1-ylmethyl)-phenoxy]-propyl}-piperidine], the Ki turned out to be 380 nM.
As to `C(=C1CCN(Cc2cccc(OCCCN3CCCCC3)c2)CC1)c1ccccc1` [Example 71, 1-{3-[3-(4-Benzylidene-piperidin-1-ylmethyl)-phenoxy]-propyl}-piperidine], the Ki amounted to 1.8 nM.
Consider `C(=C1CCN(Cc2ccc(OCCCN3CCCCC3)cc2)CC1)c1ccccc1` [Example 72, 1-{3-[4-(4-Benzylidene-piperidin-1-ylmethyl)-phenoxy]-propyl}-piperidine], for which the Ki stood at 1.3 nM.
On to `CC1CCCCN1CCCOc1ccc(CN2CCCCC2)cc1` (stereo not drawn) [Example 73, 2-Methyl-1-[3-(4-piperidin-1-ylmethyl-phenoxy)-propyl]-piperidine], for which the Ki was found to be 1.1 nM.
Same read-out and setting: to `CN(CCc1ccccc1)Cc1cccc(OCCCN2CCCCC2)c1` [Example 74, Methyl-phenethyl-[3-(3-piperidin-1-yl-propoxy)-benzyl]-amine] belongs 3 nM; to `C(=C\c1ccccc1)/CN1CCN(Cc2ccc(OCCCN3CCCCC3)cc2)CC1` [Example 75, 1-(3-Phenyl-allyl)-4-[4-(3-piperidin-1-yl-propoxy)-benzyl]-piperazine], 1.6 nM.
As to `CN1CCC(N(C)Cc2ccc(OCCCN3CCCCC3)cc2)CC1` [Example 76, Methyl-(1-methyl-piperidin-4-yl)-[4-(3-piperidin-1-yl-propoxy)-benzyl]-amine], the Ki came out at 1.1 nM.
As to `CN(CCc1ccccn1)Cc1ccc(OCCCN2CCCCC2)cc1` [Example 78, Methyl-[4-(3-piperidin-1-yl-propoxy)-benzyl]-(2-pyridin-2-yl-ethyl)-amine], the Ki was determined as 1 nM.
The same measure, in the same setting: to `CCN(Cc1ccncc1)Cc1ccc(OCCCN2CCCCC2)cc1` [Example 79, Ethyl-[4-(3-piperidin-1-yl-propoxy)-benzyl]-pyridin-4-ylmethyl-amine] belongs 1.3 nM.
With `CN(Cc1ccccc1)Cc1ccc(OCCCN2CCCCC2)cc1` [Example 80, Benzyl-methyl-[4-(3-piperidin-1-yl-propoxy)-benzyl]-amine], the Ki stood at 1 nM.
In the case of `CCN(CC)CCOc1ccc(CN2CCCCC2)cc1` [Example 81, Diethyl-[2-(4-piperidin-1-ylmethyl-phenoxy)-ethyl]-amine], the Ki worked out at 140 nM.
As for `COc1ccc(CCN(C)Cc2ccc(OCCCN3CCCCC3)cc2)cc1OC` [Example 82, [2-(3,4-Dimethoxy-phenyl)-ethyl]-methyl-[4-(3-piperidin-1-yl-propoxy)-benzyl]-amine], the Ki was determined as 1.6 nM.
Take `CN(CCc1ccccc1)Cc1ccc(OCCCN2CCCCC2)cc1` [Example 83, Methyl-phenethyl-[4-(3-piperidin-1-yl-propoxy)-benzyl]-amine]: the Ki came out at 1.7 nM.
With `c1ccc(NCc2ccc(OCCCN3CCCCC3)cc2)nc1` [Example 84, [4-(3-Piperidin-1-yl-propoxy)-benzyl]-pyridin-2-yl-amine], the Ki came to 5 nM.
For `Clc1ccc(NCc2ccc(OCCCN3CCCCC3)cc2)cc1` [Example 85, (4-Chloro-phenyl)-[4-(3-piperidin-1-yl-propoxy)-benzyl]-amine], the Ki came out at 23 nM.
Still for that read-out and setting: to `OC1(c2ccccc2)CCN(Cc2ccc(OCCCN3CCCCC3)cc2)CC1` [Example 87, 4-Phenyl-1-[4-(3-piperidin-1-yl-propoxy)-benzyl]-piperidin-4-ol] belongs 1 nM.
Take `CC(C)N1CCN(Cc2ccc(OCCCN3CCCCC3)cc2)CC1` [Example 88, 1-Isopropyl-4-[4-(3-piperidin-1-yl-propoxy)-benzyl]-piperazine]: the Ki stood at 2 nM.
On to `c1ccc(N2CCN(Cc3ccc(OCCCN4CCCCC4)cc3)CC2)cc1` [Example 91, 1-Phenyl-4-[4-(3-piperidin-1-yl-propoxy)-benzyl]-piperazine], for which the Ki was found to be 1 nM.
The same measure, in the same setting: for `c1ccc(CN(CCCn2cccc2-c2ccc(OCCCN3CCCCC3)cc2)Cc2ccccc2)cc1` [Example 92, Dibenzyl-(3-{2-[4-(3-piperidin-1-yl-propoxy)-phenyl]-pyrrol-1-yl}-propyl)-amine] the value was 5.5 nM; for `c1ccc(CC2CCN(Cc3ccc(OCCCN4CCCCC4)cc3)CC2)cc1` [Example 93, 1-{3-[4-(4-Benzyl-piperidin-1-ylmethyl)-phenoxy]-propyl}-piperidine], 1.3 nM.
The same measure, in the same setting: for `c1cc(OCCCN2CCCCC2)ccc1CN1CCOCC1` [Example 94, 4-[4-(3-Piperidin-1-yl-propoxy)-benzyl]-morpholine] the value was 0.7 nM; for `c1cc(-c2ccc(OCCCN3CCCCC3)cc2)n(CCCN2CCCCC2)c1` [Example 96, 1-(3-{4-[1-(3-Piperidin-1-yl-propyl)-1H-pyrrol-2-yl]-phenoxy}-propyl)-piperidine], 1.5 nM.

Staying with this experiment, now noted: 0.8 nM [3H]-N-methylhistamine, 45 min at 25° C., SK-N-MC cell membranes; […]; read-out: Ki.
Take `Brc1ccc2c(c1)CCN2C1CCN(Cc2ccc(OCCCN3CCCCC3)cc2)CC1` [Example 63, 5-Bromo-1-{1-[4-(3-piperidin-1-yl-propoxy)-benzyl]-piperidin-4-yl}-2,3-dihydro-1H-indole]: the Ki was determined as 3 nM.
For the compound `c1ccc2c(c1)CCN2C1CCN(Cc2ccc(OCCCN3CCCCC3)cc2)CC1` [Example 64, 1-{1-[4-(3-Piperidin-1-yl-propoxy)-benzyl]-piperidin-4-yl}-2,3-dihydro-1H-indole], the Ki came out at 2 nM.
Still for that read-out and setting: for `CC(C)N1CCC(O)(c2ccc(OCCCN3CCCCC3)cc2)CC1` [Example 77, 1-Isopropyl-4-[4-(3-piperidin-1-yl-propoxy)-phenyl]-piperidin-4-ol] the value was 2.9 nM.
On the same count and under the same terms, to `OC1(c2ccc(Cl)cc2)CCN(Cc2ccc(OCCCN3CCCCC3)cc2)CC1` [Example 86, 4-(4-Chloro-phenyl)-1-[4-(3-piperidin-1-yl-propoxy)-benzyl]-piperidin-4-ol] belongs 1.8 nM.
The same measure, in the same setting: to `c1ccc(CN2CCN(Cc3ccc(OCCCN4CCCCC4)cc3)CC2)cc1` [Example 90, 1-Benzyl-4-[4-(3-piperidin-1-yl-propoxy)-benzyl]-piperazine] belongs 0.9 nM.

The same experiment, now with this note: 0.8 nM [3H]-N-methylhistamine, 45 min at 25° C., SK-N-MC cell membranes; unit given as nm; read-out: Ki.
In the case of `c1ccc2c(c1)CCCN2Cc1ccc(OCCCN2CCCCC2)cc1` [Example 95, 1-[4-(3-Piperidin-1-yl-propoxy)-benzyl]-1,2,3,4-tetrahydro-quinoline], the Ki came to 4.8 nM.
